Measurements from BindingDB's records for doi:10.1016/j.bmcl.2007.11.087 (Bristol-Myers Squibb, 2008).

Test: Antagonist activity at human CCR3 receptor assessed as inhibition of chemotaxis in eosinophil

Row | Compound | IC50
1 | CCc1cc(NC(=O)N[C@H](C)[C@@H](O)CN(C)CCCc2ccc(F)cc2)cc(-c2nnnn2C)c1 [1-(3-ethyl-5-(1-methyl-1H-tetrazol-5-yl)phenyl)-3-((2R,3S)-4-((3-(4-fluorophenyl)propyl)(methyl)amino)-3-hydroxybutan-2-yl)urea] | 2.6 nM
2 | C[C@@H](NC(=O)Nc1cccc(-c2nnnn2C)c1)[C@@H](O)CN1CCC[C@@H](Cc2ccc(F)cc2)C1 [1-{(1R,2S)-3-[(S)-3-(4-Fluoro-benzyl)-piperidin-1-yl]-2-hydroxy-1-methyl-propyl}-3-[3-(1-methyl-1H-tetrazol-5-yl)-phenyl]-urea] | 0.038 nM
3 | C[C@@H](NC(=O)Nc1cccc(-c2nnnn2C)c1)[C@@H](O)CN(C)[C@@H](C)[C@@H](O)c1ccccc1 [1-((2R,3S)-3-hydroxy-4-(((1S,2S)-1-hydroxy-1-phenylpropan-2-yl)(methyl)amino)butan-2-yl)-3-(3-(1-methyl-1H-tetrazol-5-yl)phenyl)urea] | 22 nM

Stronger by IC50, values ahead:

Row | IC50 | Compound
4 | 0.005 nM | CCc1cc(NC(=O)N[C@H](C)[C@@H](O)CN(CCCc2ccc(F)cc2)CC2CC2)cc(-c2nnnn2C)c1 [1-((2R,3S)-4-((cyclopropylmethyl)(3-(4-fluorophenyl)propyl)amino)-3-hydroxybutan-2-yl)-3-(3-ethyl-5-(1-methyl-1H-tetrazol-5-yl)phenyl)urea]
5 | 0.004 nM | CCc1cc(NC(=O)N[C@H](C)[C@@H](O)CN(CC)CCCc2ccc(F)cc2)cc(-c2nnnn2C)c1 [1-((2R,3S)-4-(ethyl(3-(4-fluorophenyl)propyl)amino)-3-hydroxybutan-2-yl)-3-(3-ethyl-5-(1-methyl-1H-tetrazol-5-yl)phenyl)urea]
